The test system of assay [1] is rat VAChT (rVAChT) W331 mutants. The conditions noted are these: mutations of W331 in rVAChT; ref Ojeda et al. 2004; cited from earlier work.
Assay [2] concerns the target T1, hVAChT A334F (Homo sapiens, UniProt Q16572, A334F).
T1 sequence (Q16572 1-532 A334F): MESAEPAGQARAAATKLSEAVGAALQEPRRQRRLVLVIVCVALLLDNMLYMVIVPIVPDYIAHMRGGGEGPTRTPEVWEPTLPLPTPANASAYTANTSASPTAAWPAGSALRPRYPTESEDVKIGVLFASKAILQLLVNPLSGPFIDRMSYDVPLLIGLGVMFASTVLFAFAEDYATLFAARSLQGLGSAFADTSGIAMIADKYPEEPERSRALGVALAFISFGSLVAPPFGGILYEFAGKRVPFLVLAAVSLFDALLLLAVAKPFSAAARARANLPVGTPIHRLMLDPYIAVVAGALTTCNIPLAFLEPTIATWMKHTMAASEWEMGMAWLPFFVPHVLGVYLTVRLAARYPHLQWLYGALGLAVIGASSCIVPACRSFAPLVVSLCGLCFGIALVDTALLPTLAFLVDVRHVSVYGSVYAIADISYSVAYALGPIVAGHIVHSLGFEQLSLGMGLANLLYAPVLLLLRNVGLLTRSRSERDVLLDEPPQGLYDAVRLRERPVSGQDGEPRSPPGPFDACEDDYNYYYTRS
Nature of the assay: ACh equilibrium binding by competition against [3H]vesamicol. To be noted: pH 7.4, monophasic fit, FHA fixed to 1.

In assay [3] the target is T2, hVAChT A330V (Homo sapiens, UniProt Q16572, A330V).
T2 sequence (Q16572 1-532 A330V): T1 sequence (Q16572 1-532 A334F) with A330V, F334A
Nature of the assay: [3H]ACh transport. The class given is biochemical.

Assay [4] concerns the target T3, hVAChT C391A (Homo sapiens, UniProt Q16572, C391A).
T3 sequence (Q16572 1-532 C391A): T1 sequence (Q16572 1-532 A334F) with F334A, C391A
Nature of the assay: [3H]ACh transport. The class given is biochemical.

Assay [5] deals with T4, hVAChT K317A (Homo sapiens, UniProt Q16572, K317A).
T4 sequence (Q16572 1-532 K317A): T1 sequence (Q16572 1-532 A334F) with K317A, F334A
Nature of the assay: [3H]ACh transport. The class given is biochemical.

Assay [6] deals with T5, hVAChT W331L (Homo sapiens, UniProt Q16572, W331L).
T5 sequence (Q16572 1-532 W331L): T1 sequence (Q16572 1-532 A334F) with W331L, F334A
Nature of the assay: [3H]ACh transport. Format: biochemical.

The mark [7] stands for this setting: read-out: KM, Michaelis-Menten constant for ACh transport, pH 7.4.

Molecules are shown by their SMILES. Substitutions are numbered along the chain they refer to. Entries after “also recorded” stand apart in the source; their conditions may differ.

As a reminder, the Km is the concentration of substrate that gives half-maximal velocity.

As for `O[C@@H]1CCCC[C@H]1N1CCC(c2ccccc2)CC1` (racemic) [vesamicol, ( )-trans-2-(4-phenylpiperidino)cyclohexanol], the “effect on vesamicol affinity” value in assay [1] is “no loss in affinity for vesamicol; also recorded: without affecting vesamicol affinity”.

On to `CC(=O)OCC[N+](C)(C)C` [ACh, acetylcholine], for which the “FHA, fraction of the ACh sites that have high affinity” value in assay [2] worked out at 1.0. Further, the “Vmax/Bmax, ACh transport normalized to Bmax” value was found to be 6.3 ± 1.3 min⁻¹ in assay [3] (pH 7.4); 15 ± 2 min⁻¹ in assay [4] (C391A hVAChT, pH 7.4); 17.8 ± 3.9 min⁻¹ in assay [5] (pH 7.4); 6.2 ± 1.2 min⁻¹ in assay [6] (pH 7.4). The Km in assay [3] (setting [7]) turned out to be 2.2 ± 0.9 mM; in assay [4] (read-out: KM, Michaelis-Menten constant for ACh transport, C391A hVAChT, pH 7.4) it was 1.8 ± 0.3 mM; in assay [5] (setting [7]), 3.2 ± 1.2 mM; in assay [6] (setting [7]), 4.6 ± 1.5 mM. For the same compound, in assay [4] (C391A hVAChT vs wild-type), the “ACh transport faster than wild-type” value was “about 2 times”.

The values are drawn from publication PMC2962730 (Journal of neurochemistry, 2010).
